# US11186564B2, “Dual NAV1.2/5HT2a inhibitors for treating CNS disorders” (Sunovion Pharmaceuticals Inc., priority 2016, dated 2021)
# Legend:
# [1] = molecular target: human sodium channel NaV1.2 (Homo sapiens, UniProt Q99250); assay: NaV1.2 inhibition, automated patch-clamp (Q-Patch HTX), slow inactivated state (state C); format: cell-based; details: hNaV1.2 CHO cells, slow inactivated state; for IC50: read-out: NaV1.2 IC50; for inhibition at 1 µM: 1 μM compound, read-out: NaV1.2 (% inh), 1 μM
# Summary of the method: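 IC50 comes from a least-squares fit of percent inhibition, relative to vehicle, of current in the slow-inactivated state. That state is reached by a 10 s prepulse to −50 mV, then 15 ms at −90 mV, then a 5 ms test pulse to 0 mV. Human NaV1.2 in stable CHO K-1 cells, held at −100 mV, automated patch clamp.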
# [2] = molecular target: T1, recombinant human serotonin receptor 5-HT2A (Homo sapiens, UniProt P28223); assay: 5-HT2A antagonist Ca2+ assay in CHO-K1 cells (method A aequorin luminescence / method B FLIPR fluorescence); format: cell-based; details: antagonist mode vs EC80 of reference agonist, method A or B, read-out: 5HT2A IC50
# T1 construct: expressed in transfected cells; method B: loaded with Ca2+ dye
# Summary of the method: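 IC50 was obtained by nonlinear regression of percent inhibition of the EC80 agonist Ca2+ response in CHO-K1 cells stably expressing human 5-HT2A. The readout was aequorin luminescence with agonist injected 15 min after compound (A), or Ca2+-dye fluorescence on FLIPR with serotonin as agonist (B).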
# Sequence of human sodium channel NaV1.2 (Q99250 whole entry): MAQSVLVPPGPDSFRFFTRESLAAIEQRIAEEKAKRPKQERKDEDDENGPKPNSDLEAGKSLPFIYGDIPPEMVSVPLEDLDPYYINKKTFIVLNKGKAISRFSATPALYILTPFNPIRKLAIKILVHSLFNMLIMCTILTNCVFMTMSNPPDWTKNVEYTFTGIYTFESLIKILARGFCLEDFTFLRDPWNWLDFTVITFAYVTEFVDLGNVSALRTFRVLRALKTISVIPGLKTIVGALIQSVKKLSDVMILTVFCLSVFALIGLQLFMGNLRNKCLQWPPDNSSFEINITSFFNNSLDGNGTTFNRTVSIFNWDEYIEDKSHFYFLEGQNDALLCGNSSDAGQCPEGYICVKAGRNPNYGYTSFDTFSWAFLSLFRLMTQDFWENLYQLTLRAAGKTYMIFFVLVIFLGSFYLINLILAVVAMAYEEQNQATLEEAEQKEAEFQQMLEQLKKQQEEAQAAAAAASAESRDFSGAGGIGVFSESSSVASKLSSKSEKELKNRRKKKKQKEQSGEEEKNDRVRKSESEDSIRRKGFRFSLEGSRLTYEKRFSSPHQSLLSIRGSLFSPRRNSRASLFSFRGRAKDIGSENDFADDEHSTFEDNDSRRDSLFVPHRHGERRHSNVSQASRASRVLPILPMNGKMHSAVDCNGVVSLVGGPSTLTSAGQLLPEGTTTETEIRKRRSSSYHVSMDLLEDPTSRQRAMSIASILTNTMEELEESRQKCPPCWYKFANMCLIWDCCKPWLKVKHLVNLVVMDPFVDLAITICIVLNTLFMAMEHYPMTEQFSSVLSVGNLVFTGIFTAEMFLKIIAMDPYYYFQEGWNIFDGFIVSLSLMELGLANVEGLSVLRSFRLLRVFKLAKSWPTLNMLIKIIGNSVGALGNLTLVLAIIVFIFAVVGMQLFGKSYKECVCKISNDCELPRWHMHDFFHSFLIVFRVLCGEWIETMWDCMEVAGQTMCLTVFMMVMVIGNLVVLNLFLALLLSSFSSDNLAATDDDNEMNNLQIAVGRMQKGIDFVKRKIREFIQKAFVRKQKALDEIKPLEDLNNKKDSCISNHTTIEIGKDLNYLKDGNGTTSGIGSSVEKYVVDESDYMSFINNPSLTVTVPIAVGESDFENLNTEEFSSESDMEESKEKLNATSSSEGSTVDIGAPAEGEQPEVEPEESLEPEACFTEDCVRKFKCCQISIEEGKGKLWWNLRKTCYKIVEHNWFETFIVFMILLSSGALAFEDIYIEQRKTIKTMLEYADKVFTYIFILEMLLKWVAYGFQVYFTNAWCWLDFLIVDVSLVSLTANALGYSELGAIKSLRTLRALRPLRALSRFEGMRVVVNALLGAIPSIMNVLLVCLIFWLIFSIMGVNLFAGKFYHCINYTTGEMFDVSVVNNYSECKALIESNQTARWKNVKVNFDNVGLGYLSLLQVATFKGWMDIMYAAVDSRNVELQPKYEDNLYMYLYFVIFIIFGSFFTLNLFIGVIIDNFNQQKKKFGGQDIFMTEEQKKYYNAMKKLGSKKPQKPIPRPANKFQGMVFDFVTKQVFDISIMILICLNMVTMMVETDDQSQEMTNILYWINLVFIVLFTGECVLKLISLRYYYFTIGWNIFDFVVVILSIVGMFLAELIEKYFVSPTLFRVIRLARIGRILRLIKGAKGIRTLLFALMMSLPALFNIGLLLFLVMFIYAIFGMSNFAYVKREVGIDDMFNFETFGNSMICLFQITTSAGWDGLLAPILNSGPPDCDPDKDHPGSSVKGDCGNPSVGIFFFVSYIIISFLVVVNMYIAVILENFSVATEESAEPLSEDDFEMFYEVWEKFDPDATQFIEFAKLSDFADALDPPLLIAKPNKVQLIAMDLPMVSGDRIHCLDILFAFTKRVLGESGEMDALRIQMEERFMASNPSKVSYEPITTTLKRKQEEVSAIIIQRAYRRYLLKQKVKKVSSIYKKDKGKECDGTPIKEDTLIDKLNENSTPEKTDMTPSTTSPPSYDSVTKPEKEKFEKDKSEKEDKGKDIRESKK
# T1 sequence (P28223 whole entry): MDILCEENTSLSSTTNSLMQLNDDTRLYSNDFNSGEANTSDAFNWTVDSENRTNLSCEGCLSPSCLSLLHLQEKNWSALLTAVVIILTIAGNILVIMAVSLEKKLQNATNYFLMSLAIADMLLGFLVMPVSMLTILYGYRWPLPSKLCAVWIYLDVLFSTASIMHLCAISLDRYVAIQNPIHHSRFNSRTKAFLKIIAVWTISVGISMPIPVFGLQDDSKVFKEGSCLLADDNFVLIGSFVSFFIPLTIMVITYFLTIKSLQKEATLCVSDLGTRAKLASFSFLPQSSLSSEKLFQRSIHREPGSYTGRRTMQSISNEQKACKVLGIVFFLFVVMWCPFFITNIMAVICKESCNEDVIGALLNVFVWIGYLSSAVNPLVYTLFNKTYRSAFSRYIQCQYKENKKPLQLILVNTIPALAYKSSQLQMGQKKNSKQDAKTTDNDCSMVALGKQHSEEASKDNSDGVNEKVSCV
SMILES,IC50 [1] [nM],IC50 [2] [nM],inhibition at 1 µM [1] [%]
"CC(=O)Nc1ccc(OCC(O)CN2CCN(c3ccc(C)c(Cl)c3)CC2)cc1 (stereo not drawn) [Example 90, N-(4-(3-(4-(3-chloro-4-methylphenyl)piperazin-1-yl)-2-hydroxypropoxy)phenyl)acetamide]",59500,10,
"COc1ccccc1O[C@@H]1CCN(CCC2CCOc3ccccc32)[C@@H](C)C1 (stereo partly drawn) [Example 182, (2S,4R)-1-(2-(chroman-4-yl)ethyl)-4-(2-methoxyphenoxy)-2-methylpiperidine]",,200,52
"Cc1ccccc1OCC(O)CN1CCC(c2nc3ccccc3s2)CC1 (stereo not drawn) [Example 91, 1-(4-(benzo[d]thiazol-2-yl)piperidin-1-yl)-3-(o-tolyloxy)propan-2-ol]",170,20,
"O=C1c2ccccc2CCN1CCN1C[C@@H]2C[C@H]1CN2c1ccccc1 [Example 304, 2-(2-((1S,4S)-5-phenyl-2,5-diazabicyclo[2.2.1]heptan-2-yl)ethyl)-3,4-dihydroisoquinolin-1(2H)-one]",,7050,4
"O[C@@H](COC1CCCCC1)CN1CC2(CC(c3ccccc3)CO2)C1 (stereo partly drawn) [Example 361, (2R)-1-(cyclohexyloxy)-3-(7-phenyl-5-oxa-2-azaspiro[3.4]octan-2-yl)propan-2-ol]",2710,20,
c1ccc2c(c1)CCC1(CCN(CCO[C@H]3CCc4ccccc43)CC1)O2 [Example 432],360,150,
"COc1ccc2c(c1)C(CN1CCC(Oc3ccccc3)CC1)CC2 (stereo not drawn) [Example 107, 1-((6-methoxy-2,3-dihydro-1H-inden-1-yl)methyl)-4-phenoxypiperidine]",1990,4,
"COc1ccccc1O[C@@H]1CCN(CC2Cc3ccccc3C2)[C@@H](C)C1 [Example 142, (2S,4R)-1-((2,3-dihydro-1H-inden-2-yl)methyl)-4-(2-methoxyphenoxy)-2-methylpiperidine]",910,300,
"O=C1c2ccc(Br)cc2CCCN1CCN1CCC(Oc2ccc(F)cc2)CC1 [Example 213, 7-bromo-2-(2-(4-(4-fluorophenoxy)piperidin-1-yl)ethyl)-2,3,4,5-tetrahydro-1H-benzo[c]azepin-1-one]",180,80,
